Publication PMC6332026, “Synthesis and Pharmacochemistry of New Pleiotropic Pyrrolyl Derivatives” (Molecules, 2015)
“Also recorded” adds a separate entry of the source. Marks after values point to notes of the source that are not given here.

Assays:
[1] = Superoxide radical scavenging activity (non-enzymatic, PMS/NADH, NBT method); conditions: 100 μM
Description: Superoxide anion radical is an active form of oxygen, and it is the product of the one-electron reduction of […] oxygen. Herein, superoxide radicals were formed by mixing phenazine methosulfate (PMS) with NADH and air-oxygen. The production of radicals was estimated with the nitroblue-tetrazolium method (NBT). From the tested pyrroles, Compounds 2i and 2iii were equipotent (57%) scavengers. […] In contrast, the dipole moment appeared to be important. The values of the dipole, as calculated by the program Spartan v.5.1.3.
The superoxide anion radicals were produced non-enzymatically by mixing phenazine methosulfate (PMS) with NADH and air-oxygen. The production of superoxide radicals was estimated with the nitroblue-tetrazolium (NBT) method with 3 μΜ PMS, 78 μΜ NADH and 25 μΜ NBT in 19 μΜ phosphate buffer pH 7.4. The absorbance was measured at 560 nm at room temperature. The tested compounds were added in the mixture 2 min before the addition of NADH [52].

[2] = tested on: carrageenan-induced rat paw edema; experiment: Inhibition of rat paw edema induced by carrageenan; type: in vivo, Fischer 344 rats; conditions: intraperitoneally, 3.5 h; for inhibition in vivo at 10 µmol/kg: Rattus norvegicus, ip, 0.01 mmol/kg body weight, read-out: CPE % inhibition of rat paw edema induced by carrageenan
Method: The pyrrolyl derivatives, as well as their precursor chalcones were tested in vivo for the inhibition of rat paw edema induced by carrageenan. […] […]. For Compounds 2i, 2iii, 2iv and 2v, we determined their ED50 values. […]. The finding supports the primary idea of this design.
Edema was induced in the right hind paw of Fischer 344 rats (150–200 g). In the study, both males and females were included, with the exemption of pregnant females. The animals, which have been bred in our laboratory, were housed under standard conditions and received a diet of commercial food pellets and water ad libitum during maintenance. One hour before the onset of the experiment, food and water were removed. The tested compounds (dose 0.01 mmol/kg body weight) were diluted in water with a few drops of Tween 80, and they were administered intraperitoneally simultaneously with the intradermal injection of 0.1 mL 2% of carrageenan in water. The animals were euthanatized 3.5 h after the carrageenan administration. The difference between the weight of injected and uninjected paws was calculated for each animal and was compared to control animals, which were treated with water. Indomethacin was used as a reference compound in 0.01 mmol/kg. The results were expressed as the percent inhibition of the edema (CPE %).

[3] = target: T1, COX-2 (Homo sapiens, UniProt P35354); experiment: Inhibition of cycloxygenase-2 (colorimetric TMPD assay); conditions: for inhibition at 100 µM: read-out: COX-2 % inhibition; for COX-2 % inhibition: 100 μM
T1 sequence (P35354 18-604): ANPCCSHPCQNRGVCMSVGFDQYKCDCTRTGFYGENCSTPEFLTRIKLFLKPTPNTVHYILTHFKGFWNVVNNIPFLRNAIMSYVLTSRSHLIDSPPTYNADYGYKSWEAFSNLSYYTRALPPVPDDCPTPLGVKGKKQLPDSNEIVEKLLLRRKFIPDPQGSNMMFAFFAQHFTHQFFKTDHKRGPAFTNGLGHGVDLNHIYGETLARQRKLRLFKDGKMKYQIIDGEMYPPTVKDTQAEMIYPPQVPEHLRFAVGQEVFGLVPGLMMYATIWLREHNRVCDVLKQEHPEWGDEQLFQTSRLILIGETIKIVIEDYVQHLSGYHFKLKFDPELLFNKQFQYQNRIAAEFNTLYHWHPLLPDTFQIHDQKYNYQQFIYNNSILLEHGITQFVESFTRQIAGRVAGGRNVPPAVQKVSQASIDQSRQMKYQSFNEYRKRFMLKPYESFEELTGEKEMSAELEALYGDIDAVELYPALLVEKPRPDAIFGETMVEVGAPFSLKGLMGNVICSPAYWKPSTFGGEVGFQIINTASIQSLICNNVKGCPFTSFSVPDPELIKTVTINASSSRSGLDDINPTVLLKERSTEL
Method: The inhibition of COX-2, as a peroxidase, was determined by a colorimetric assay with the oxidation of N,N,N′,N′-tetramethyl-p-phenylenediamine (TMPD).
COX-2 inhibitory activity was determined by using arachidonic acid (AA) as a substrate in buffer (0.1 M Tris pH 8.5) and TMPD as a co-substrate.

[4] = Lipophilicity as RM values by reverse-phase thin layer chromatography (RPTLC); type: physicochemical; conditions: methanol/water 75/25 v/v with ammonia drops
Description: Since lipophilicity is a significant physicochemical property determining the absorption, distribution, metabolism and excretion properties (ADME) of drugs, we attempted to determine experimentally the lipophilicity as RM values with reverse-phase thin layer chromatography (RPTLC). Lipophilicity was also theoretically calculated as Clog P values. According to the calculated Clog P values, the most lipophilic compounds were 2iii (6.37) and 2v (6.04). However, this observation was not supported by the RM values, since Compound 2iii presented very low lipophilicity (−0.061). Furthermore, the lipophilicity of Compound 2v could not be determined experimentally under the reported conditions. Attempts to correlate Clog P and RM values failed. From our results (Table 2), it can be concluded that RM values could not be used as a successful relative measure of the overall lipophilic/hydrophilic properties of these molecules. Tentatively, this can be attributed to the different nature of the hydrophilic and lipophilic phases in the two systems. Clog P refers to n-octanol/water, whereas RM in this case refers to methanol/water. Moreover, it is likely that pyrrole derivatives form hydrogen bonds within the hydrophilic phase.
Reverse-phase thin layer chromatography (RPTLC) was used for the determination of RM values. Silica gel plates were saturated with 5% v/v liquid paraffin in petroleum ether, and the mobile phase was methanol/water (75/25 v/v) with the addition of ammonia drops. Spots were detected under UV light. RM values were determined by the corresponding Rf values (from five measurements for each compound) using the equation [43]: RM = log[(1/Rf) − 1](1)

melting point	RM [4]	SMILES	O2^•− % superoxide radical scavenging activity [1]	inhibition in vivo at 10 µmol/kg [2]	ED50 (carrageenan rat paw edema) [2]	inhibition at 100 µM [3]	COX-2 % inhibition [3]
233 to 235 °C	−0.061	O=C(c1cccs1)c1c[nH]cc1-c1ccc(OCc2ccc(Br)cc2)cc1 [Compound 2iii, (4-{4-[(4-Bromobenzyl)oxy]phenyl}-1H-pyrrol-3-yl)(thien-2-yl)methanone]	57%	89%	0.052 mmol/kg Body Weight		inactive; also recorded: without any activity
165 to 166 °C	0.091	O=C(c1cccs1)c1c[nH]cc1-c1cccc(Oc2ccccc2)c1 [Compound 2i, [4-(3-Phenoxyphenyl)-1H-pyrrol-3-yl](thien-2-yl)methanone]	57%		0.061 ^c mmol/kg Body Weight	67.2%	
270 to 272 °C	−0.149	O=C(c1ccccc1)c1c[nH]cc1-c1cccc2ccccc12 [Compound 2iv, [4-(Naphth-1-yl)-1H-pyrrol-3-yl](phenyl)methanone]	76%	75%			inactive

SMILES	melting point	RM [4]	O2^•− % superoxide radical scavenging activity [1]	inhibition in vivo at 10 µmol/kg [2]	ED50 (carrageenan rat paw edema) [2]	inhibition at 100 µM [3]	COX-2 % inhibition [3]
O=C(c1ccc(Cl)cc1)c1c[nH]cc1-c1cccc2ccccc12 [Compound 2v, (4-Chlorophenyl)[4-(naphth-1-yl)-1H-pyrrol-3-yl]methanone]	285 to 286 °C		inactive	78%	0.063 mmol/kg Body Weight	81%	
